The assay deals with 233499-124-R-J3-PDC complex spheroid viability, % test/control. In words: Anticancer human tumor 233499-124-R-J3-PDC patient-derived colon adenocarcinoma cell line growth inhibition. The following applies: for viability, T/C: stronger effect = lower value. The method, boiled down: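 Drug combinations with the LSD1 inhibitor iadademstat tested on tumor cells co-cultured as spheroids with endothelial cells and mesenchymal stem cells. Concentrations descended in half-log increments from clinical Cmax or 10 microM.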

The mark [1] stands for this setting: curve of first compound, second compound 0.1 µM.
Setting [2] is: curve of first compound, second compound 0.316 µM.
[3] abbreviates: curve of first compound, second compound 1 µM.
[4] abbreviates: curve of first compound, second compound 3.16 µM.
[5] abbreviates: curve of first compound, second compound 10 µM.
The mark [6] stands for this setting: second compound 0.1 µM, first compound 0.00949 µM.
[7] abbreviates: second compound 0.1 µM, first compound 0.03 µM.
The mark [8] stands for this setting: second compound 0.1 µM, first compound 0.0949 µM.
The mark [9] stands for this setting: second compound 0.1 µM, first compound 0.3 µM.
[10] abbreviates: second compound 0.316 µM, first compound 0.00949 µM.
The mark [11] stands for this setting: second compound 0.316 µM, first compound 0.03 µM.
Where [12] appears, read: second compound 0.316 µM, first compound 0.0949 µM.
Setting [13] is: second compound 0.316 µM, first compound 0.3 µM.
Where [14] appears, read: second compound 1 µM, first compound 0.00949 µM.
Setting [15] is: second compound 1 µM, first compound 0.03 µM.
The mark [16] stands for this setting: second compound 1 µM, first compound 0.0949 µM.
[17] abbreviates: second compound 1 µM, first compound 0.3 µM.
Where [18] appears, read: second compound 3.16 µM, first compound 0.00949 µM.
Where [19] appears, read: second compound 3.16 µM, first compound 0.03 µM.
Setting [20] is: second compound 3.16 µM, first compound 0.0949 µM.
Where [21] appears, read: second compound 3.16 µM, first compound 0.3 µM.
Where [22] appears, read: second compound 10 µM, first compound 0.00949 µM.
[23] abbreviates: second compound 10 µM, first compound 0.03 µM.
Where [24] appears, read: second compound 10 µM, first compound 0.0949 µM.
Where [25] appears, read: second compound 10 µM, first compound 0.3 µM.

Molecules are shown by their SMILES. Values joined by “and” are separate entries in the source; they are usually repeats but may differ in a detail not shown here. Equal values may be shown once.
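Further: spheroids exposed to agents for one week before readout.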

By IC50 is commonly meant the concentration that inhibits the measured activity by half. The term viability, T/C denotes the result in the treated group divided by that in the control group, in per cent. With `NS(=O)(=O)OCC1CC(n2ccc3c(NC4CCc5ccccc54)ncnc32)CC1O` (stereo not drawn) + NC1CC1c1ccc(-c2cccc(O)c2)cc1, the IC50 stood at 46.8 nM under setting [1]; 58.5 nM under setting [2]; 42.3 nM under setting [3]; 52.4 nM under setting [4]; 46.4 nM under setting [5]. Moreover, the viability, T/C by setting is: under setting [6], 92.5%; under setting [7], 63.6%; under setting [8], 28.6%; under setting [9], 6.14%; (second compound 0.1 µM, first compound 0.949 µM) 3.11%; (second compound 0.1 µM, first compound 3 µM) 2.93%. Besides, the viability, T/C was 100% under setting [10]; 76.9% under setting [11]; 31.2% under setting [12]; 5.03% under setting [13]; 4.27% (second compound 0.316 µM, first compound 0.949 µM); 3.91% (second compound 0.316 µM, first compound 3 µM). The viability, T/C is, setting by setting: under setting [14], 92.3%; under setting [15], 59.1%; under setting [16], 28.5%; under setting [17], 9.59%; (second compound 1 µM, first compound 0.949 µM) 4.05%; (second compound 1 µM, first compound 3 µM) 3.47%. The viability, T/C is, setting by setting: under setting [18], 90.8%; under setting [19], 68.8%; under setting [20], 29.9%; under setting [21], 9.96%; (second compound 3.16 µM, first compound 0.949 µM) 4.13%; (second compound 3.16 µM, first compound 3 µM) 3.43%. The viability, T/C runs as follows: under setting [22], 84%; under setting [23], 63.9%; under setting [24], 27.1%; under setting [25], 8.93%; (second compound 10 µM, first compound 0.949 µM) 5.35%; (second compound 10 µM, first compound 3 µM) 2.93%.
With `NC1CCC(NC2CC2c2ccccc2)CC1` (stereo not drawn), the IC50 (compound alone, run of 01/24/2022) was > 10000 nM.
For the compound `Nc1ccn(C2OC(CO)C(O)C2(F)F)c(=O)n1` (stereo not drawn) + NC1CCC(NC2CC2c2ccccc2)CC1, the half-inhibitory concentration (IC50) under setting [1] was determined as 2.48 nM; the IC50 under setting [2] is 4.47 nM; the IC50 under setting [3] was 6.13 nM; the concentration for half-maximal inhibition (IC50) under setting [4] was found to be 1.07 nM; the IC50 under setting [5] was < 0.949 nM. Also, the viability, T/C runs as follows: (second compound 0.1 µM, first compound 0.000949 µM) 100%; (second compound 0.1 µM, first compound 0.003 µM) 35.6%; under setting [6], 43.9%; under setting [7], 21.9%; under setting [8], 30.3%; under setting [9], 21.1%. Further, the viability, T/C was 99.4% (second compound 0.316 µM, first compound 0.000949 µM); 58.8% (second compound 0.316 µM, first compound 0.003 µM); 22.2% under setting [10]; 32.3% under setting [11]; 37.9% under setting [12]; 41.5% under setting [13]. Moreover, the viability, T/C reads like this: (second compound 1 µM, first compound 0.000949 µM) 88.7%; (second compound 1 µM, first compound 0.003 µM) 62.1%; under setting [14], 44.4%; under setting [15], 31.1%; under setting [16], 26.6%; under setting [17], 35.1%. Further, the viability, T/C is, setting by setting: (second compound 3.16 µM, first compound 0.000949 µM) 51.4%; (second compound 3.16 µM, first compound 0.003 µM) 40.9%; under setting [18], 36.9%; under setting [19], 47.2%; under setting [20], 18.9%; under setting [21], 39.5%. Besides, the viability, T/C is, setting by setting: (second compound 10 µM, first compound 0.000949 µM) 59.2%; (second compound 10 µM, first compound 0.003 µM) 29.7%; under setting [22], 29.2%; under setting [23], 34.9%; under setting [24], 27.3%; under setting [25], 37%.
Regarding `Nc1ccccc1NC(=O)c1ccc(CNC(=O)OCc2cccnc2)cc1`, the viability, T/C was 90.9% and 83.5% (compound 0.00949 µM); 101% and 93.5% (compound 0.03 µM); 84.8% and 81% (compound 0.0949 µM); 90% and 63.2% (compound 0.3 µM); 28.9% and 12.3% (compound 0.949 µM); 4.68% and 3.17% (compound 3 µM). Further, for the setting “curve of compound”, the concentration for half-maximal inhibition (IC50) was 637 nM and 401 nM.
Turning to `Cn1ncnc1C1c2n[nH]c(=O)c3cc(F)cc(c23)NC1c1ccc(F)cc1` (stereo not drawn) + NC1CC1c1ccc(-c2cccc(O)c2)cc1, the IC50 reads like this: under setting [1], > 100 nM; under setting [2], > 100 nM; under setting [3], > 100 nM; under setting [4], > 100 nM; under setting [5], > 100 nM. Also, the viability, T/C is 106% (second compound 0.1 µM, first compound 0.000316 µM); 105% (second compound 0.1 µM, first compound 0.001 µM); 105% (second compound 0.1 µM, first compound 0.00316 µM); 91.2% (second compound 0.1 µM, first compound 0.01 µM); 95.4% (second compound 0.1 µM, first compound 0.0316 µM); 84.4% (second compound 0.1 µM, first compound 0.1 µM). Moreover, the viability, T/C is, setting by setting: (second compound 0.316 µM, first compound 0.000316 µM) 89.1%; (second compound 0.316 µM, first compound 0.001 µM) 108%; (second compound 0.316 µM, first compound 0.00316 µM) 128%; (second compound 0.316 µM, first compound 0.01 µM) 98.1%; (second compound 0.316 µM, first compound 0.0316 µM) 102%; (second compound 0.316 µM, first compound 0.1 µM) 89.3%. The viability, T/C runs as follows: (second compound 1 µM, first compound 0.000316 µM) 85.7%; (second compound 1 µM, first compound 0.001 µM) 83.1%; (second compound 1 µM, first compound 0.00316 µM) 87.5%; (second compound 1 µM, first compound 0.01 µM) 74.2%; (second compound 1 µM, first compound 0.0316 µM) 89.5%; (second compound 1 µM, first compound 0.1 µM) 88.5%. The viability, T/C (second compound 3.16 µM, first compound 0.000316 µM) is 89.9%; the viability, T/C (second compound 3.16 µM, first compound 0.001 µM) was 96%; the viability, T/C (second compound 3.16 µM, first compound 0.00316 µM) is 90.2%; the viability, T/C (second compound 3.16 µM, first compound 0.01 µM) is 76.5%; the viability, T/C (second compound 3.16 µM, first compound 0.0316 µM) was 76.7%; the viability, T/C (second compound 3.16 µM, first compound 0.1 µM) was 78.5%. The viability, T/C was 74.7% (second compound 10 µM, first compound 0.000316 µM); 80.6% (second compound 10 µM, first compound 0.001 µM); 69.7% (second compound 10 µM, first compound 0.00316 µM); 70.3% (second compound 10 µM, first compound 0.01 µM); 58.7% (second compound 10 µM, first compound 0.0316 µM); 58.8% (second compound 10 µM, first compound 0.1 µM).

The values above are taken from PubChem BioAssay AID1918930 (Molecular Pharmacology Branch, DTP, NCI, 2023).
